For one assay, the target named is Cytochrome P450 2D6 (Homo sapiens, UniProt P10635).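 Also: CYP2D6 member of a cytochrome P450 panel assay.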
Assay [1] in a line: inhibitors of intracellular T. cruzi replication, confirmation, NIH3T3 host cells, beta-gal luminescence (AID 2044).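 Also: intracellular parasites grown in NIH/3T3 mouse fibroblasts as host cells; luminescent beta-galactosidase reporter signal from transgenic T. cruzi replicating inside host cells; inhibitors lower the luminescence signal.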 Type of assay: functional, cell-based.
The nature of assay [2]: cytotoxicity toward NIH3T3 fibroblasts, dose response, counter-screen, cell-based, ATP luminescence, mouse fibroblasts (AID 2010).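 Also: cells exposed to compound for about 90 hours before reading.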 Type of assay: functional. For orientation: A counterscreen serves to expose hits that act by an unwanted route or on another target.
The target of the next assay is Cytochrome P450 2C9 (Homo sapiens, UniProt P11712).
The target in the next assay is T1, Cytochrome P450 1A2 (Homo sapiens, UniProt P05177).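 Also: PubChem cytochrome P450 panel assay, CYP1A2 panel member.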
T1 sequence (P05177 whole entry): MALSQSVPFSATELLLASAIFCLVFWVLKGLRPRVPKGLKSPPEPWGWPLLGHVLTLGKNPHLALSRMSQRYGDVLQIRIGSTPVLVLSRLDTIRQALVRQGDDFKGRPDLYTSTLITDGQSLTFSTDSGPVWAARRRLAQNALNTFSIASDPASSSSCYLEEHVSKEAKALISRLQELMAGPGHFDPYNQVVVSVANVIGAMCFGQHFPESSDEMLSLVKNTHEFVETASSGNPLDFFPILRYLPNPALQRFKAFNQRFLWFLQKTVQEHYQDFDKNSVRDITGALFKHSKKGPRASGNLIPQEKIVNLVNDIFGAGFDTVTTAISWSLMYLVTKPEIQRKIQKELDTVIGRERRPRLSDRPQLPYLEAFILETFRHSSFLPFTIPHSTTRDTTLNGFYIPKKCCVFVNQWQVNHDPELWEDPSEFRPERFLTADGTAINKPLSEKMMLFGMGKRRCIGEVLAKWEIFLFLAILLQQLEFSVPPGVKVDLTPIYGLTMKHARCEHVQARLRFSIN

This passage reports AC50 and EC50 results from ChEMBL document CHEMBL1201862, “PubChem BioAssay data set” (2004).

Where “and” joins values, the source holds several entries; their conditions need not be identical. Equal values may be shown once. Calls of active or inactive are those of the source. Some results are limits rather than exact numbers.

Sequence of Cytochrome P450 2C9 (P11712 whole entry): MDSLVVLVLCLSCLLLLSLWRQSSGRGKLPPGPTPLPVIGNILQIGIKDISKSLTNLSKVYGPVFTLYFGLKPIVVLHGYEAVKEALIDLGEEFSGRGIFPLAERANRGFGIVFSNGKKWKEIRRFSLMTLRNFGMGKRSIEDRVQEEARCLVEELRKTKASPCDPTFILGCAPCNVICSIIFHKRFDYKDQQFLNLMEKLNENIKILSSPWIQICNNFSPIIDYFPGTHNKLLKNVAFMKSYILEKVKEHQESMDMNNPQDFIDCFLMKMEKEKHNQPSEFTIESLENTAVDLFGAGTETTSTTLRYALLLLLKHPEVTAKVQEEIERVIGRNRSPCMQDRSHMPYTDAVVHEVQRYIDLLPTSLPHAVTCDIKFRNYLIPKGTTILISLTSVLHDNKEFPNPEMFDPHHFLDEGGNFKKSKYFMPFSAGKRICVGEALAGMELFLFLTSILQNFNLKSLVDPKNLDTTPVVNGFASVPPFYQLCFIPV
Sequence of Cytochrome P450 2D6 (P10635 whole entry): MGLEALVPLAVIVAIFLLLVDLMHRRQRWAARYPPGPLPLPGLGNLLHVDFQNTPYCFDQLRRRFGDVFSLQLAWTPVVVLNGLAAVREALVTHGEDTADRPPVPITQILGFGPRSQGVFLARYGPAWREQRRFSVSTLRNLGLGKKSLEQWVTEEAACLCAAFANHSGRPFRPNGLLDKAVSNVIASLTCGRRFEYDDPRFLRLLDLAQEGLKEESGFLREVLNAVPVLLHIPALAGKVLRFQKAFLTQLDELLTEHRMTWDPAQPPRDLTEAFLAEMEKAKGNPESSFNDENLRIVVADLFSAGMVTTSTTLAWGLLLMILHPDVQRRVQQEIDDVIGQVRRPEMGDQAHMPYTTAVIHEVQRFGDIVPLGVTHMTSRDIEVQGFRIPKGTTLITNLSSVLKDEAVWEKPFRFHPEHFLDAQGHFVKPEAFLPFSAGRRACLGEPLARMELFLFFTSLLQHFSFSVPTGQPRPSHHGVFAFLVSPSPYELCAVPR

For orientation: AC50 means the midpoint of the concentration-response curve, whichever way the signal moves. With `CCOC(=O)NC(=O)CSc1nc2cc(OCC)ccc2[nH]1`, at Cytochrome P450 2D6, the AC50 is 0.562 µM (inconclusive). For orientation: EC50 means the concentration at which the effect is half-maximal. On to `O=C(Nc1ccncc1)c1ccc(Cl)c(Cl)c1`, for which the results for the 50% effective concentration (EC50) in assay [1] and in assay [2] were 0.472 µM (active) and > 30 µM (not active), respectively. Take `CCOC(=O)C(C)Sc1nnc(CNC(=O)c2ccc(OC)cc2)n1C1CCCCC1` (stereo unspecified): the concentration at half-maximal activity (AC50) on Cytochrome P450 2C9 is 15.8 µM (inconclusive). Turning to `Clc1ccc2c(N3CCC(CCC4CCN(c5ncnc6cc(Cl)ccc56)CC4)CC3)ncnc2c1`, on Cytochrome P450 1A2, the concentration at half-maximal activity (AC50) is 3.16 µM (inconclusive).

With `CC(Oc1ccc(-c2ccccc2)cc1)C(=O)O` (stereo unspecified), the figures for the AC50 at Cytochrome P450 1A2 and at Cytochrome P450 2C9 were 25.1 µM (inconclusive) and 39.8 µM (inconclusive), respectively. In the case of `O=C1C2Sc3nc(O)sc3C(c3ccccc3)C2C(=O)N1c1ccc(Cl)cc1` (stereo unspecified), on Cytochrome P450 2D6, the concentration at half-maximal activity (AC50) is 22.4 µM (inconclusive). As to `Cn1c(=O)c([N+](=O)[O-])c(NCCc2ccccc2)c2ccccc21`, the 50% effective concentration (EC50) in assay [1] was 0.554 µM (active); in assay [2], > 60 µM (not active). As for `COc1cccc(-c2cncnc2NCc2cccs2)c1`, on Cytochrome P450 2D6, the half-maximal activity concentration (AC50) is 20 µM (inconclusive). Turning to `CC(C)NC[C@@H](O)COc1ccc(CCOCC2CC2)cc1`, the AC50 on Cytochrome P450 1A2 is 15.8 µM (inconclusive) and 12.6 µM (inconclusive). Turning to `Cc1ccc(CNC(=O)c2nnn(-c3cccc(C)c3)c2N)cc1`, the AC50 at Cytochrome P450 2D6 and at Cytochrome P450 2C9 was 39.8 µM (inconclusive) throughout. On to `Cc1[nH]c2ccc(F)cc2c1CCN(Cc1cccnc1)C(S)=Nc1ccccc1`, for which the EC50 in assay [1] was 0.953 µM (active); in assay [2] it was > 60 µM (not active). As to `O=C(c1cnccn1)N1CCC[C@@]2(CCN(c3ccccc3)C2)C1`, the concentration at half-maximal activity (AC50) on Cytochrome P450 1A2 was 15.8 µM (inconclusive). Take `O=S(=O)(c1ccccc1)N1CCC[C@@]2(CCN(C(c3ccccc3)c3ccccc3)C2)C1`: the concentration at half-maximal activity (AC50) at Cytochrome P450 2C9 is 10 µM (inconclusive). With `COC(=O)Cn1c(C(=O)N2CCCC2)cc2c1C[C@H]1CN(C(=O)c3ccccc3)[C@@](Cc3ccc(F)cc3)(C(=O)OC)[C@@H]21`, the concentration at half-maximal activity (AC50) at Cytochrome P450 1A2 was 15.8 µM (inconclusive).

With `COc1ccc2[nH]cc(CCNc3ccnc(-c4cccnc4)n3)c2c1`, the concentration at half-maximal activity (AC50) at Cytochrome P450 2C9 is 0.794 µM (inconclusive). `CN(C)C(=O)c1ccc(-c2cncnc2NC2CCNCC2)cc1`: on Cytochrome P450 1A2, the half-maximal activity concentration (AC50) was 25.1 µM (inconclusive).

As to `COc1cc(CN2CCCC(C(=O)Nc3cccc(-n4cccn4)c3)C2)ccc1F` (stereo unspecified), the values for the EC50 in assay [1] and in assay [2] were 0.194 µM (active) and > 60 µM (not active), respectively. For `O=C(Nc1ccccc1C(=O)O)c1cc(S(=O)(=O)N2CCCCC2)c(Cl)cc1Cl`, the figures for the EC50 in assay [1] and in assay [2] were 3.6 µM (active) and 14 µM (active), respectively.

Regarding `Clc1ccc2[nH]cc(-c3nnnn3-c3ccc4ccccc4c3)c2c1`, the concentration giving a half-maximal response (EC50) in assay [1] was 1.97 µM (active); in assay [2] it was > 60 µM (not active). On the same counts, the results for `CCN1CCCc2cc(CN(CCN3CCOCC3)C(S)=Nc3cccc(C)c3)ccc21` are 1.62 µM (active) and > 60 µM (not active). As to `CCN(CC)CCCOC(=O)c1ccc(OC)cc1O`, the EC50 was 0.743 µM (active) in assay [1] and > 60 µM (not active) in assay [2]. For the compound `Cc1ccc(S(=O)(=O)c2nc(S(=O)(=O)c3ccc(C)cc3)c(NCc3ccco3)s2)cc1`, the half-maximal activity concentration (AC50) at Cytochrome P450 2C9 was 5.62 µM (inconclusive).

Take `CC(=O)Nc1ccc(Cc2ccc3nc(O)cc(C)c3c2)cc1`: at Cytochrome P450 2C9, the AC50 was 6.31 µM (inconclusive). On to `CCCNC(=O)OC[C@@H]1O[C@H](CCO/N=C(\C)CCN2CCCCc3nc(C)c(C)cc32)C=C[C@@H]1Oc1ccc(OC)cc1`, for which the concentration at half-maximal activity (AC50) was 2.51 µM (inconclusive) at Cytochrome P450 2D6 and 3.98 µM (inconclusive) on Cytochrome P450 2C9. For `COc1ccc(C2SCC(=O)N2CC23CC4CC(CC(C4)C2)C3)cc1` (stereo unspecified), the concentration giving a half-maximal response (EC50) in assay [1] was 2.87 µM (active); in assay [2], > 60 µM (not active).

As for `Cn1c(C(=O)OC(C(=O)NC2CCCCC2)c2ccncc2)cc2sccc21` (stereo unspecified), the EC50 in assay [1] and in assay [2] was > 30 µM (not active) each time.

Consider `CCCCSC(=S)N(C)C1CCS(=O)(=O)C1` (stereo unspecified), for which, on Cytochrome P450 1A2, the AC50 was 25.1 µM (inconclusive). For the compound `COCCn1c(=O)c(-c2cccc(C#N)c2)nc2cnc(N3CCOCC3)nc21`, the AC50 was 10 µM (inconclusive) at Cytochrome P450 1A2 and 12.6 µM (inconclusive) at Cytochrome P450 2C9. In the case of `CSc1ccc(CN(C)CCc2ccccn2)cc1`, the 50% effective concentration (EC50) in assay [1] is 0.143 µM (active); in assay [2], > 30 µM (not active). With `O=C(C[N+]1(c2ccccc2)CCOCC1)c1ccccc1`, the AC50 on Cytochrome P450 2C9 was 6.31 µM (inconclusive). Regarding `CCN1CCN(CC(=O)N2CCCC(C(=O)c3ccc(Oc4ccccc4)cc3)C2)CC1` (stereo unspecified), the EC50 in assay [1] is 0.478 µM (active); in assay [2], > 30 µM (not active).

On to `COc1ccccc1CNc1ncnc2ccc(-c3ccc4c(c3)OCO4)cc12`, for which the AC50 at Cytochrome P450 2C9 is 0.398 µM (inconclusive). As for `OCCC1CN(Cc2ccc3nonc3c2)CCN1Cc1ccsc1` (stereo unspecified), the EC50 was 0.452 µM (active) in assay [1] and > 60 µM (not active) in assay [2]. In the case of `C/C(CCC(=O)OC[C@@H]1O[C@H](C#Cc2ccccc2)C=C[C@@H]1Oc1ccc(C)cc1)=N/O[C@@H](C)CN1CCCc2nc(C)c(C)cc21`, the AC50 on Cytochrome P450 2C9 is 2.51 µM (inconclusive). With `COc1ccc(-c2ccc3c(n2)CCCN3C[C@H](O)CN2CCCc3nc(C)c(C)cc32)cc1`, the concentration at half-maximal activity (AC50) at Cytochrome P450 2D6 was 3.16 µM (inconclusive).

Regarding `CCN1CCN(c2ccc(NC(=O)C(C)C)cc2Cl)CC1`, the AC50 at Cytochrome P450 2D6 was 14.1 µM (inconclusive). Turning to `CCOC(=O)N1CCC(N2CCCC(C(=O)c3cc(F)ccc3OC)C2)CC1` (stereo unspecified), the values for the concentration giving a half-maximal response (EC50) in assay [1] and in assay [2] were 2.66 µM (active) and > 60 µM (not active), respectively.

For `c1ccc(Cc2ccc(OCCCNC3CCCC3)cc2)cc1`, the results for the EC50 in assay [1] and in assay [2] were 0.781 µM (active) and > 30 µM (not active), respectively.

For `Cc1cccc(CNc2cc(-c3c(C)noc3C)ncn2)c1`, on Cytochrome P450 2D6, the AC50 is 31.6 µM (inconclusive). For the compound `Cc1nn(-c2ccc([N+](=O)[O-])cc2)c2c1C(c1cccc(Br)c1)N1C(=N2)C(=O)Nc2ccccc21` (stereo unspecified), the values for the concentration for a half-maximal effect (EC50) in assay [1] and in assay [2] were 2.13 µM (active) and > 60 µM (not active), respectively. As for `COc1ccc(-n2c(=O)c(-c3ccc(Cl)cc3)nc3cnc(N4CCOCC4)nc32)cc1`, the half-maximal activity concentration (AC50) on Cytochrome P450 2C9 was 31.6 µM (inconclusive). On to `CCCCC(=O)Nc1cc(OCC)c(NC(=O)c2ccccc2[N+](=O)[O-])cc1OCC`, for which the AC50 on Cytochrome P450 1A2 was 14.1 µM (inconclusive).

With `CCN(CC)CCNC(=O)c1ccc(Cl)c(S(=O)(=O)Nc2ccccc2OC)c1`, the AC50 on Cytochrome P450 2C9 is 12.6 µM (inconclusive). `CSc1cc(C)nc(NC(C)=O)n1`: the AC50 on Cytochrome P450 1A2 is 1.26 µM (inconclusive); on Cytochrome P450 2C9 it was 3.16 µM (inconclusive). For the compound `COc1cc(O)oc1/C=N/c1ccc(C(F)(F)F)cc1`, the concentration at half-maximal activity (AC50) at Cytochrome P450 2D6 was 15.8 µM (inconclusive); at Cytochrome P450 2C9, 17.8 µM (inconclusive). Take `O=C(N/N=C/c1ccc([N+](=O)[O-])o1)C(O)c1ccccc1` (stereo unspecified): the results for the EC50 in assay [1] and in assay [2] were 0.565 µM (active) and > 60 µM (not active), respectively. Consider `Cc1cc(C(=O)N/N=C/c2cccc(OC(=O)c3ccco3)c2)[nH]n1`, for which, on Cytochrome P450 1A2, the AC50 was 22.4 µM (inconclusive). As for `CC(C)(C)c1cc(/C=C(\C#N)C(N)=S)cc(C(C)(C)C)c1O` [TYRPHOSTIN AG 879], the AC50 at Cytochrome P450 2D6 is 39.8 µM (inconclusive).
